# Tests used:
# [1] = system: mouse sciatic nerve denervation atrophy model; test: mouse sciatic nerve denervation atrophy model; format: in vivo
# Description: Legend: A—non-denervated medial gastrocnemius muscle from mice treated with physiological saline (non-atrophied control); B—denervated medial gastrocnemius muscle from mice treated with physiological saline (atrophied control); C—amylin (0.03 mg/kg)+theophylline; D—amylin (0.1 mg/kg)+theophylline; E—amylin (0.3 mg/kg)+theophylline. * —p≦0.05 compared to saline. Following denervation of the right sciatic nerve, male mice were injected subcutaneously in the midscapular region twice daily with amylin, at the doses indicated above or vehicle control (physiological saline) for nine days. […] On day nine, the medial gastrocnemius muscle was removed and weighed to determine the degree of atrophy.
# The sciatic nerve denervation atrophy model involves anesthetizing the animal followed by the surgical removal of a short segment of either the right or left sciatic nerve, e.g., in mice the sciatic nerve is isolated approximately at the midpoint along the femur and a 3-5 mm segment is removed. This denervates the lower hind limb musculature resulting in atrophy of these muscles. Typically, innervation to the biceps femoris is left intact to provide satisfactory motion of the knee for virtually normal ambulation. […] The extent of atrophy in the affected muscles is analyzed, for example, by measuring muscle mass, muscle cross-sectional area, myofiber cross-sectional area or contractile protein content.
# [2] = system: leg casting disuse atrophy model; test: leg casting disuse atrophy model; format: in vivo, mouse
# Description: Legend: A—physiological saline (control); B—amylin (0.1 mg/kg)+theophylline; C—amylin (0.3 mg/kg)+theophylline; D—amylin (1.0 mg/kg)+theophylline; *—p≦0.05 compared to saline. Following casting of the right hind leg, male mice were injected subcutaneously in the midscapular region twice daily, with amylin or vehicle control (physiological saline) for ten days at the daily delivered dose indicated. Amylin was co-administered with twice daily intra-peritoneal dosing of the phosphodiesterase inhibitor theophylline (30 mg/kg). On day ten, the medial gastrocnemius and tibialis anterior muscles were removed and weighed to determine the degree of atrophy.
# The leg casting disuse atrophy model involves casting one hind leg of an animal from the knee down through the foot. Typically, muscle mass is reduced 20-40% after ten days of casting. Following casting, test compounds are administered by injection or by continuous infusion via implantation of an osmotic minipump (e.g., Alzet, Palo Alto, Calif.) to determine their effect on leg casting induced skeletal muscle atrophy. At various times following leg casting, the extent of atrophy in the affected muscles is analyzed as described above for the denervation model.
# [3] = system: mouse glucocorticoid-induced atrophy model; test: mouse glucocorticoid-induced atrophy model; format: in vivo
# Description: Legend: A—water only with no dexamethasone included in drinking water (non-atrophied control); B—water+dexamethasone (atrophied control); C—amylin (0.3 mg/kg/d)+theophylline+dexamethasone; D—amylin (1.0 mg/kg/d)+theophylline+dexamethasone; *—p≦0.05 compared to water; #—p≦0.05 compared to water+dexamethasone. Following the addition of the glucocorticoid, dexamethasone, to the drinking water (1.2 mg/kg/d), male mice were injected subcutaneously in the midscapular region twice daily with amylin, at the doses indicated above or vehicle control (physiological saline) for nine days. Amylin was co-administered with twice daily intra-peritoneal dosing of the phosphodiesterase inhibitor theophylline (30 mg/kg). Nine days following the initiation of dosing amylin, the medial gastrocnemius and tibialis anterior muscles were removed and weighed to determine the degree of atrophy.
# The glucocorticoid-induced atrophy model involves the administration of a glucocorticoid to the test animal, e.g., 1.2 mg/kg/day of dexamethasone in the drinking water. Typically, in untreated animals, skeletal muscle mass is reduced 30-50% following ten days of dexamethasone administration. Concomitantly with, or following glucocorticoid administration, test compounds are administered e.g., by injection or by continuous infusion to determine their effect on glucocorticoid-induced skeletal muscle atrophy. At various times following glucocorticoid administration, the extent of atrophy in the affected muscles is analyzed as described above for the denervation model.
# [4] = system: human subject in a comatose state; test: prophylactic treatment of skeletal muscle atrophy in comatose state (Example 13); format: in vivo; conditions: human 60 kg, 5 ml of 12 mg/ml amylin stock in 500 ml saline, slow i.v. infusion once each day
# Description: A human subject weighing 60 kg is admitted to the hospital in a comatose state. The subject is treated by this method to prevent atrophy of the skeletal muscle of the entire body due to disuse in the comatose state. Specifically, once each day while in the coma, the subject is administered, via slow intravenous infusion, approximately 500 ml of an aqueous solution that is prepared by addition of 5 ml of the following stock solution to 500 ml of sterile saline: […]
Compound,"effect on skeletal muscle atrophy, theophylline administered alone ([1]; denervation model, theophylline alone)","effect on skeletal muscle atrophy, theophylline administered alone ([2]; casting disuse model, theophylline alone)","effect on skeletal muscle atrophy, theophylline administered alone ([3]; glucocorticoid-induced model, theophylline alone)","denervation-induced atrophy of the medial gastrocnemius muscle (muscle weight) ([1]; male mice, amylin 0.03, 0.1, 0.3 mg/kg s.c. twice daily + theophylline 30 mg/kg i.p. twice daily, nine days, FIG. 1)",skeletal muscle mass and function [4],"disuse-induced (casting) atrophy of the tibialis anterior muscle (muscle weight) ([2]; male mice, casted right hind leg, amylin 0.1, 0.3, 1.0 mg/kg s.c. twice daily + theophylline 30 mg/kg i.p., ten days, FIG. 3A)","disuse-induced (casting) atrophy of the medial gastrocnemius muscle (muscle weight) ([2]; male mice, casted right hind leg, amylin 0.1, 0.3, 1.0 mg/kg s.c. twice daily + theophylline 30 mg/kg i.p., ten days, FIG. 3B)","hypertrophy of the tibialis anterior muscle of the non-casted leg ([2]; male mice, non-casted (normal) leg, amylin 0.1, 0.3, 1.0 mg/kg s.c. twice daily + theophylline 30 mg/kg i.p., ten days, FIG. 3A)","hypertrophy of the medial gastrocnemius muscle of the non-casted leg ([2]; male mice, non-casted (normal) leg, amylin 0.1, 0.3, 1.0 mg/kg s.c. twice daily + theophylline 30 mg/kg i.p., ten days, FIG. 3B)","glucocorticoid-induced atrophy of the tibialis anterior muscle (muscle weight) ([3]; male mice, dexamethasone 1.2 mg/kg/d in drinking water, amylin 0.3, 1.0 mg/kg/d s.c. twice daily + theophylline 30 mg/kg i.p., nine days, FIG. 2A)","glucocorticoid-induced atrophy of the medial gastrocnemius muscle (muscle weight) ([3]; male mice, dexamethasone 1.2 mg/kg/d in drinking water, amylin 0.3, 1.0 mg/kg/d s.c. twice daily + theophylline 30 mg/kg i.p., nine days, FIG. 2B)"
"Cn1c(=O)c2[nH]cnc2n(C)c1=O [Theophylline, theophylline]",no effect,no effect,no effect,,,,,,,,
"amylin (KCNTATCATQRLANFLVHSSNNFGAILSSTNVGSNTY; Islet amyloid polypeptide; UniProt P10997 34-70, looked up) [a 37 amino acid peptide; the ligand/agonist of the amylin receptors]",,,,inhibits denervation-induced atrophy,measurable preservation of skeletal muscle mass and function,inhibits disuse-induced atrophy,inhibits disuse-induced atrophy,statistically significant hypertrophy,statistically significant hypertrophy,inhibits glucocorticoid-induced muscle atrophy,inhibits glucocorticoid-induced muscle atrophy

# Reference: patent US20040005997A1, “Methods for identifying compounds for regulating muscle mass of function using amylin receptors” (The Procter & Gamble Company, priority 2002, published 2004)
